Data as given in US11833187B2, “Materials and methods for extracellular vessicle-associated diseases” (THE BRIGHAM AND WOMEN'S HOSPITAL, INC., priority 2017, dated 2023).
“Also recorded” adds a separate entry of the source. Each block holds one compound with its values, some of them ahead of it. Peptide text beside a SMILES is read from it. * marks the point of attachment. Cbz = O=C(OCc1ccccc1)*

Experiments:
FLAG-sortilin ICD+TMD = experiment: Reducing western blotting of FLAG-sortilin ICD+TMD protein expression in stably overexpressing HEK293 cells; type: cell-based, human; settings: for protein expression of FLAG-sortilin ICD+TMD: MG-132 20 μmol/L or chloroquine 10 μmol/L for 7 hours, n=3
Description: (§1) Cells, EVs and the supernatant of culture medium were lysed with IP lysis buffer (Thermo Fisher Scientific Inc., Cat #87787) containing protease inhibitor (Roche Diagnostics, Cat #04693159001). Protein concentration was measured using the bicinchoninic acid (BCA) method (Thermo Fisher Scientific Inc., Cat #23225). Laemmli buffer (Boston Bioproduct; non-reducing, Cat #BP-110NR; reducing, Cat #BP-111R) was added to the lysate, and boiled at 95° C. for 5 minutes. Total protein was separated by 4-12% SDS-PAGE and transferred to polyvinylidene difluoride (PVDF) membrane using iBlot Western blotting system (Life Technologies) or conventional wet method. Primary antibodies against human sortilin ICD (rabbit 1:1000; Abcam plc., Cat #ab16640, Lot #GR185198-1), human (3-actin (mouse 1:2000; Novus Biologicals, LLC, Cat #NB600-501, Lot #014M4759), FLAG (rabbit 1:1000; Sigma, Cat #F4725, Lot #093M4798, mouse (M2) 1:1000; Sigma, Cat #F1804, Lot #SLBJ4607V), 6×His (mouse 1:1000; Abcam plc., Cat #ab18184, Lot #GR247674-1).
(§2) HEK293 cells were purchased from American Type Culture Collection (ATCC) and maintained in Eagle's minimum essential medium (EMEM, ATCC, Cat #30-2003) supplemented with 10% fetal bovine serum (FBS), penicillin (100 U/mL), and streptomycin (100 μg/mL) at 37° C. in a humidified atmosphere of 5% CO2. For transfection in HEK293 cells, Lipofectamine 2000 reagent (Thermo Fisher Scientific Inc., Cat #11668019) was used, according to the manufacturer's protocol. HEK293 cells stably expressing FLAG-sortilin Full, ECD+TMD, ICD+TMD and sortilin-3×FLAG were obtained by transfection with pcDNA3.1(+) FLAG-sortilin Full, pcDNA3.1(+) FLAG-sortilin-ECD+TMD, pcDNA3.1(+) FLAG-sortilin ICD+TMD, and expression vector of sortilin-3×FLAG (GeneCopoeia, Inc., Cat # EX-M0397-M14), respectively. These cell lines were maintained in EMEM supplemented with 10% FBS, penicillin/streptomycin, and geneticin 800 μg/mL. Cells were incubated in the incubator with MG-132 and chloroquine during the indicated time, and with 2-FPA and sortilin propeptide for 24 hours, respectively.

FLAG-sortilin [1] = biological target: T1, FLAG-sortilin (Homo sapiens, UniProt Q99523); experiment: Non-reducing western blotting of sortilin dimerization in extracellular vesicles of FLAG-sortilin HEK293 cells; type: cell-based; settings: for sortilin homodimers (dimerization) in the extracellular vesicles: EVs of HEK293 cells stably overexpressing FLAG-sortilin, 24-h incubation, n=3; for dimerization of sortilin in the extracellular vesicles: EVs of FLAG-sortilin HEK293 cells, propeptide 100 nmol/L, 24 hours, n=2
T1 construct: pcDNA3.1(+) FLAG-sortilin full-length (Full), amino acids (aa) 1-831; expressed in transfected cells; cells and their extracellular vesicles
T1 sequence (Q99523 78-831): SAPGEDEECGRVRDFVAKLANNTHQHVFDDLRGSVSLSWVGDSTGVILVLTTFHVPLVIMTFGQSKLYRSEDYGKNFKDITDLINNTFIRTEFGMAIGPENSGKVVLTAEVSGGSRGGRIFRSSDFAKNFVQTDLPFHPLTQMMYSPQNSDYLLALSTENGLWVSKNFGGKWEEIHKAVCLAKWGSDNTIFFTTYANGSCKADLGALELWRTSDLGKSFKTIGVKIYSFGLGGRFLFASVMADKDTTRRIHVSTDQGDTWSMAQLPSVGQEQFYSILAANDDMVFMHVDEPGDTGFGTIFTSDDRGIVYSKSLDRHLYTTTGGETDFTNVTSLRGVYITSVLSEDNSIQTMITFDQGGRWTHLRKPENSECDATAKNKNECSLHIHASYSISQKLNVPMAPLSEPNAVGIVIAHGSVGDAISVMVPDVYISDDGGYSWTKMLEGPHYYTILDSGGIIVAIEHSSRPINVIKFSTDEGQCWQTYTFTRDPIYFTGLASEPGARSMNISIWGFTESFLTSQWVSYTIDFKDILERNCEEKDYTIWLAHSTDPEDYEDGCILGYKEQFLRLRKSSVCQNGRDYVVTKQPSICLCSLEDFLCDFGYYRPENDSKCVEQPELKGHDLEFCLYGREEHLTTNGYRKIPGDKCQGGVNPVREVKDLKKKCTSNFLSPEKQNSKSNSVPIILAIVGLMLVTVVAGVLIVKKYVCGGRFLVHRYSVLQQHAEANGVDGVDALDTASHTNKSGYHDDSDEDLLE
Description: as §1, §2
Separation of culture medium to supernatant and EVs was performed according to the protocol previously reported (41). Culture medium underwent centrifugation at 1,000 rpm for 5 minutes to remove cell debris. Then, the supernatant and EVs were separated by ultracentrifugation at 100,000 g for 40 minutes at 4° C. (Optima Max Ultracentrifuge, Beckman Coulter).

FLAG-sortilin [2] = biological target: T1, FLAG-sortilin; experiment: Non-reducing western blotting of sortilin dimerization in FLAG-sortilin HEK293 cells; type: cell-based; settings: for sortilin homodimers of low molecular weight in the cells: HEK293 cells stably overexpressing FLAG-sortilin, 24-h incubation, n=3; for dimerization of sortilin in the cells: FLAG-sortilin HEK293 cells, propeptide 100 nmol/L, 24 hours, n=2
Description: as §1, §2

[3] = listed as palmitoylation inhibitor

Compound: Chloroquine diphosphate salt
protein expression of FLAG-sortilin ICD+TMD (FLAG-sortilin ICD+TMD): did not

sortilin homodimers of low molecular weight in the cells (FLAG-sortilin [2]; [3]): increased sortilin dimerization
Compound: CCCCCCCCCCCCCCC(F)C(=O)O (stereo not drawn) [2-FPA, 2-fluoropalmitic acid]
sortilin homodimers (dimerization) in the extracellular vesicles (FLAG-sortilin [1]): increased dimerization of FLAG-sortilin in the EVs; also recorded: increased sortilin homodimers of low molecular weight
sortilin homodimers (dimerization) in the extracellular vesicles (FLAG-sortilin [1]; [3]): increased transport of dimerized sortilin to EVs
sortilin homodimers of low molecular weight in the cells (FLAG-sortilin [2]): increased only homodimers of lower molecular size in the cells; also recorded: increased sortilin homodimers of low molecular weight

dimerization of sortilin in the cells (FLAG-sortilin [2]): did not affect dimerization in the cells
dimerization of sortilin in the cells (FLAG-sortilin [2]; listed as propeptide): a decrease in the cells was not observed
Compound: sortilin-derived propeptide: Sortilin propeptide (SEQ ID NO: 2), purchased from Phoenix Pharmaceuticals; the claimed inhibitor of sortilin dimerization (QDRLDAPPPPAAPLPRWSGPIGVSWGLRAAAAGGAFPRGGRWRR; listed as Homo sapiens)
dimerization of sortilin in the extracellular vesicles (FLAG-sortilin [1]): decreased sortilin homodimers within EVs; also recorded: decreases sortilin homodimers in EVs; also recorded: decreased dimerization in the extracellular vesicles
dimerization of sortilin in the extracellular vesicles (FLAG-sortilin [1]; listed as propeptide): decreased dimerization of sortilin in the extracellular vesicles
sortilin dimerization (formation of homodimers), compartment not given (FLAG-sortilin [2]; HEK293 cell line, propeptide treatment, summary statement): reduced them; also recorded: sortilin dimerization was decreased

Compound: CC(C)C[C@@H](C=O)NC(=O)[C@H](CC(C)C)NC(=O)[C@H](CC(C)C)NC(=O)OCc1ccccc1 [MG-132] (Cbz-Leu-Leu-Leu-aldehyde)
protein expression of FLAG-sortilin ICD+TMD (FLAG-sortilin ICD+TMD): increased the protein expression of FLAG-sortilin ICD+TMD
protein expression of FLAG-sortilin ICD+TMD, time and concentration dependence (FLAG-sortilin ICD+TMD; MG-132 2-20 μmol/L for 7 or 24 hours): increased protein expression of FLAG-sortilin ICD+TMD in a time- and concentration-dependent manner
